Experimental data published in the supplement of paper PMC10307832.

Columns and labels:
Test in all cases: relative viability (nuclei count vs DMSO), 5 days (fraction); higher = more cells survive
[1] = compound: CC1=C(C=C(C=C1)NC(=O)C2=CC(=CC=C2)C(C)(C)C#N)NC3=CC4=C(C=C3)N=CN(C4=O)C [AZ628] + CC(C)C[C@H](NC(=O)[C@H](Cc1ccccc1)NC(=O)c1cnccn1)B(O)O [Bortezomib] (partner 0.002 µM)
Outline: (§1)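 A single step with final 0.05% Triton X-100, 1% formaldehyde and 1 ug/ml Hoechst fixed the cells and stained nuclei 5 days after treatment. Lung cancer cell lines in 1536-well plates had been treated by pin tool the day after seeding with one drug alone or a fixed anchor-drug dose plus five library-drug doses (not always all listed) in √10 steps, and nuclei were counted on 4× images. Relative viability is the ratio of nuclei in treated wells to nuclei in vehicle wells, taken as the median of duplicate plates.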

[2] = compound: C[As](C)SC[C@H](NC(=O)CC[C@H](N)C(=O)O)C(=O)NCC(=O)O [Darinaparsin] + COc1cc2c(Oc3ccc(NC(=O)C4(C(=O)Nc5ccc(F)cc5)CC4)cc3F)ccnc2cc1OCCCN1CCOCC1 [Foretinib] (partner 0.25 µM)
Outline: as §1

[3] = compound: C[As](C)SC[C@H](NC(=O)CC[C@H](N)C(=O)O)C(=O)NCC(=O)O [Darinaparsin] + CS(=O)(=O)CCNCc1ccc(-c2ccc3ncnc(Nc4ccc(OCc5cccc(F)c5)c(Cl)c4)c3c2)o1 [Lapatinib] (partner 2 µM)
Outline: as §1

[4] = compound: C[As](C)SC[C@H](NC(=O)CC[C@H](N)C(=O)O)C(=O)NCC(=O)O [Darinaparsin] + C[C@@H](Oc1cc(-c2cnn(C3CCNCC3)c2)cnc1N)c1c(Cl)ccc(F)c1Cl [Crizotinib] (partner 1 µM)
Outline: as §1

Row | Cell Line | relative viability ([1]; first compound 0.08 µM) | relative viability ([1]; first compound 0.253 µM) | relative viability ([1]; first compound 0.8 µM) | relative viability ([1]; first compound 2.53 µM) | relative viability ([1]; first compound 8 µM) | relative viability ([2]; first compound 0.08 µM) | relative viability ([2]; first compound 0.8 µM) | relative viability ([2]; first compound 2.53 µM) | relative viability ([2]; first compound 8 µM) | relative viability ([3]; first compound 0.08 µM) | relative viability ([3]; first compound 0.8 µM) | relative viability ([3]; first compound 2.53 µM) | relative viability ([3]; first compound 8 µM) | relative viability ([4]; first compound 0.08 µM) | relative viability ([4]; first compound 0.8 µM) | relative viability ([4]; first compound 2.53 µM) | relative viability ([4]; first compound 8 µM)
1 | SK-LU-1 | 1.1 | 1.05 | 1.17 | 0.854 | 1.04 | 1.13 | 0.76 | 0.65 | 0.958 | 1.08 | 0.802 | 0.574 | 0.932 | 1.15 | 1.06 | 0.669 | 0.946
2 | EMC-BAC-2 | 1.11 | 0.963 | 1 | 0.991 | 1.08 | 1.08 | 0.958 | 1.01 | 1.16 | 0.858 | 0.924 | 0.949 | 1.05 | 0.812 | 0.772 | 0.676 | 0.801
3 | EBC-1 | 0.636 | 0.605 | 0.642 | 0.685 | 0.472 | 0.103 | 0.0925 | 0.123 | 0.0888 | 0.2 | 0.211 | 0.246 | 0.223 | 0.196 | 0.19 | 0.181 | 0.166
4 | A-427 | 0.884 | 0.993 | 1.1 | 0.94 | 0.452 | 1.35 | 1.15 | 0.989 | 1.32 | 1.08 | 1.06 | 1.04 | 1.22 | 1.01 | 0.902 | 0.777 | 1.1
5 | NCI-H727 | 0.604 | 0.487 | 0.389 | 0.42 | 0.295 | 0.917 | 0.863 | 1.11 | 1 | 0.872 | 0.545 | 0.79 | 0.967 | 0.713 | 0.786 | 0.77 | 0.988
6 | COR-L23 | 1.04 | 1.04 | 0.97 | 1.14 | 0.645 | 1.21 | 1.04 | 0.934 | 1.34 | 1.41 | 0.811 | 0.716 | 1.16 | 0.818 | 0.648 | 0.601 | 0.661
7 | NCI-H1299 | 1.07 | 1.13 | 1.19 | 1.25 | 1.04 | 1.14 | 1.06 | 1.09 | 1.11 | 1.09 | 0.955 | 0.958 | 0.853 | 1.09 | 0.981 | 0.871 | 1.1
8 | PC-3 [JPC-3] | 0.778 | 0.924 | 0.9 | 0.801 | 0.857 | 1.13 | 1.03 | 1.1 | 1.13 | 0.458 | 0.364 | 0.411 | 0.492 | 0.976 | 0.948 | 0.973 | 0.849
9 | NCI-H520 | 0.732 | 0.476 | 0.502 | 0.591 | 0.571 | 1.12 | 0.662 | 0.845 | 0.871 | 1.11 | 0.817 | 0.802 | 0.794 | 0.873 | 0.759 | 0.515 | 0.924
10 | NCI-H1563 | 0.898 | 0.856 | 0.894 | 0.855 | 0.95 | 1.02 | 0.901 | 0.826 | 0.999 | 1.01 | 1.02 | 0.914 | 1.14 | 0.903 | 0.768 | 0.87 | 0.874
11 | HCC-827 | 1.04 | 1.03 | 1.03 | 1.01 | 1.07 | 1.16 | 1.09 | 1.02 | 1.06 | 0.198 | 0.184 | 0.153 | 0.176 | 0.959 | 0.853 | 0.979 | 0.965
12 | NCI-H1666 | 0.812 | 0.715 | 0.567 | 0.621 | 0.705 | 0.995 | 0.888 | 1.19 | 1.06 | 0.763 | 0.587 | 0.59 | 0.701 | 0.904 | 0.927 | 1.02 | 1.14
13 | NCI-H322M | 1.36 | 1.46 | 1.28 | 1.38 | 1.11 | 1.04 | 1.04 | 0.826 | 1.02 | 0.611 | 0.603 | 0.52 | 0.603 | 1.02 | 1.06 | 0.753 | 1.03
14 | NCI-H838 | 0.949 | 0.772 | 0.733 | 0.838 | 0.942 | 1.19 | 1.03 | 0.856 | 1.23 | 1.23 | 0.835 | 0.831 | 1.32 | 0.996 | 0.803 | 0.776 | 0.976
15 | NCI-H2228 | 0.936 | 1.03 | 0.909 | 0.963 | 0.929 | 1.42 | 0.935 | 0.949 | 0.891 | 1.46 | 0.869 | 0.685 | 1.22 | 0.613 | 0.506 | 0.484 | 0.512
16 | NCI-H596 | 1 | 1.03 | 1.09 | 1.09 | 1.27 | 0.906 | 0.974 | 0.734 | 0.67 | 1.1 | 1.02 | 1.01 | 1.06 | 1.08 | 0.999 | 0.765 | 0.982
17 | NCI-H647 | 0.984 | 0.905 | 0.903 | 0.947 | 1.28 | 1.53 | 1.31 | 1.01 | 1.45 | 1.28 | 0.926 | 0.833 | 1.42 | 1.66 | 1.1 | 1.16 | 1.6
